# From patent publication US20240393292A1, “ALLERGY ANTIGEN AND EPITOPE THEREOF” (HOYU CO., LTD., priority 2019, published 2024)
# Test system: IgE antibodies from patients
# Experiment: Wheat epitope mapping (2): overlapping 10-amino-acid peptide fragments shifted by one amino acid
# Format: binding, human
# Conditions: partial sequence
# In short: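 Cellulose-bound 10-mer peptides offset by one residue were probed with patient serum IgE and detected by chemiluminescence. Secondary-antibody-only signals were subtracted per peptide. Residual binding was expressed as % of the parent overlapping peptide, scored as none (<30%), poor (30–<50%), somewhat poor (50–<70%) or retained (≥70%).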
# [1] = serum of patient P50 (child, general immediate type allergy to wheat)
# [2] = serum of patient G7 (adult, general immediate type allergy to wheat)
substance,measurement,setting,value
2646 (KEAAEMN; REGION 1..7: note = epitope) [compound 2646],"Epitope sequence binding to IgE antibody, rank of the sequence",serum of patient P22 (WDEIA),Key
2647 (KEAAEM; REGION 1..6: note = epitope) [compound 2647],"Epitope sequence binding to IgE antibody, rank of the sequence",serum of patient P26 (WDEIA),Key
2648 (NKRSFK; REGION 1..6: note = epitope) [compound 2648],"Epitope sequence binding to IgE antibody, rank of the sequence",serum of patient P26 (WDEIA),Key
2649 (KEAAE; REGION 1..5: note = epitope) [compound 2649],"Epitope sequence binding to IgE antibody, rank of the sequence",serum of patient P29 (WDEIA),Preferably
2652 (KEAAEM; REGION 1..6: note = epitope) [compound 2652],"Epitope sequence binding to IgE antibody, rank of the sequence",serum of patient P31 (WDEIA),Preferably
2653 (EAAE; REGION 1..4: note = epitope) [compound 2653],"Epitope sequence binding to IgE antibody, rank of the sequence",serum of patient P31 (WDEIA),Key
2655 (EAAEMNK; REGION 1..7: note = epitope) [compound 2655],"Epitope sequence binding to IgE antibody, rank of the sequence",serum of patient P32 (WDEIA),Preferably
2658 (FEKEAAE; REGION 1..7: note = epitope) [compound 2658],"Epitope sequence binding to IgE antibody, rank of the sequence",serum of patient P35 (WDEIA),Key
2659 (EAAEMNKRSF; REGION 1..10: note = epitope) [compound 2659],"Epitope sequence binding to IgE antibody, rank of the sequence",serum of patient P35 (WDEIA),Preferably
2660 (EMNKRSF; REGION 1..7: note = epitope) [compound 2660],"Epitope sequence binding to IgE antibody, rank of the sequence",serum of patient P35 (WDEIA),Key
2663 (FEKEAA; REGION 1..6: note = epitope) [compound 2663],"Epitope sequence binding to IgE antibody, rank of the sequence",[1],Preferably
2664 (FEKEA; REGION 1..5: note = epitope) [compound 2664],"Epitope sequence binding to IgE antibody, rank of the sequence",[1],Key
2668 (KEAAE; REGION 1..5: note = epitope) [compound 2668],"Epitope sequence binding to IgE antibody, rank of the sequence","serum of patient P57 (child, general immediate type allergy to wheat)",Preferably
2671 (AEMNKRSFK; REGION 1..9: note = epitope) [compound 2671],"Epitope sequence binding to IgE antibody, rank of the sequence","serum of patient G5 (adult, general immediate type allergy to wheat)",Key
2672 (RFEKEAAEMN; REGION 1..10: note = epitope) [compound 2672],"Epitope sequence binding to IgE antibody, rank of the sequence",[2],Key
2673 (EAAEMNKR; REGION 1..8: note = epitope) [compound 2673],"Epitope sequence binding to IgE antibody, rank of the sequence",[2],Key
2676 (YKGPTL; REGION 1..6: note = epitope) [compound 2676],"Epitope sequence binding to IgE antibody, rank of the sequence",serum of patient P8 (WDEIA),Key
2677 (YKGPTL; REGION 1..6: note = epitope) [compound 2677],"Epitope sequence binding to IgE antibody, rank of the sequence",serum of patient P12 (WDEIA),Key
2679 (YKGPTL; REGION 1..6: note = epitope) [compound 2679],"Epitope sequence binding to IgE antibody, rank of the sequence",serum of patient P14 (WDEIA),Key
2680 (YKGPTL; REGION 1..6: note = epitope) [compound 2680],"Epitope sequence binding to IgE antibody, rank of the sequence",serum of patient P17 (WDEIA),Key
2682 (YKGPTL; REGION 1..6: note = epitope) [compound 2682],"Epitope sequence binding to IgE antibody, rank of the sequence",serum of patient P22 (WDEIA),Preferably
2683 (KGPTL; REGION 1..5: note = epitope) [compound 2683],"Epitope sequence binding to IgE antibody, rank of the sequence",serum of patient P22 (WDEIA),Key
2684 (YKGPTL; REGION 1..6: note = epitope) [compound 2684],"Epitope sequence binding to IgE antibody, rank of the sequence",serum of patient P26 (WDEIA),Key
2685 (YKGPTL; REGION 1..6: note = epitope) [compound 2685],"Epitope sequence binding to IgE antibody, rank of the sequence",serum of patient P27 (WDEIA),Preferably
2688 (YKGPTL; REGION 1..6: note = epitope) [compound 2688],"Epitope sequence binding to IgE antibody, rank of the sequence",serum of patient P29 (WDEIA),Key
2689 (YKGPTL; REGION 1..6: note = epitope) [compound 2689],"Epitope sequence binding to IgE antibody, rank of the sequence",serum of patient P30 (WDEIA),Key
2692 (YKGPTL; REGION 1..6: note = epitope) [compound 2692],"Epitope sequence binding to IgE antibody, rank of the sequence",serum of patient P33 (WDEIA),Key
2693 (YKGPTL; REGION 1..6: note = epitope) [compound 2693],"Epitope sequence binding to IgE antibody, rank of the sequence",serum of patient P34 (WDEIA),Key
2694 (YKGPTL; REGION 1..6: note = epitope) [compound 2694],"Epitope sequence binding to IgE antibody, rank of the sequence",serum of patient P35 (WDEIA),Key
2695 (YKGPTL; REGION 1..6: note = epitope) [compound 2695],"Epitope sequence binding to IgE antibody, rank of the sequence",serum of patient P36 (WDEIA),Key
2696 (YKGPTL; REGION 1..6: note = epitope) [compound 2696],"Epitope sequence binding to IgE antibody, rank of the sequence","serum of patient G3 (adult, general immediate type allergy to wheat)",Key
2697 (YKGPTL; REGION 1..6: note = epitope) [compound 2697],"Epitope sequence binding to IgE antibody, rank of the sequence","serum of patient G6 (adult, general immediate type allergy to wheat)",Key
2698 (KGPTL; REGION 1..5: note = epitope) [compound 2698],"Epitope sequence binding to IgE antibody, rank of the sequence",[2],Key
2699 (YKGPTL; REGION 1..6: note = epitope) [compound 2699],"Epitope sequence binding to IgE antibody, rank of the sequence","serum of patient G8 (adult, general immediate type allergy to wheat)",Key
2700 (YKGPTL; REGION 1..6: note = epitope) [compound 2700],"Epitope sequence binding to IgE antibody, rank of the sequence","serum of patient G9 (adult, general immediate type allergy to wheat)",Key
2703 (YKIGGIGTV; REGION 1..9: note = epitope) [compound 2703],"Epitope sequence binding to IgE antibody, rank of the sequence",serum of patient P3 (WDEIA),Preferably
2704 (YKIGGI; REGION 1..6: note = epitope) [compound 2704],"Epitope sequence binding to IgE antibody, rank of the sequence",serum of patient P3 (WDEIA),Key
2706 (YKIGGIGTV; REGION 1..9: note = epitope) [compound 2706],"Epitope sequence binding to IgE antibody, rank of the sequence",serum of patient P8 (WDEIA),Preferably
2707 (YKIGGIGT; REGION 1..8: note = epitope) [compound 2707],"Epitope sequence binding to IgE antibody, rank of the sequence",serum of patient P8 (WDEIA),Key
2709 (YKIGGIGT; REGION 1..8: note = epitope) [compound 2709],"Epitope sequence binding to IgE antibody, rank of the sequence",serum of patient P16 (WDEIA),Preferably
2710 (YKIGG; REGION 1..5: note = epitope) [compound 2710],"Epitope sequence binding to IgE antibody, rank of the sequence",serum of patient P16 (WDEIA),Key
2712 (YKIGG; REGION 1..5: note = epitope) [compound 2712],"Epitope sequence binding to IgE antibody, rank of the sequence",serum of patient P17 (WDEIA),Preferably
2713 (KIGG; REGION 1..4: note = epitope) [compound 2713],"Epitope sequence binding to IgE antibody, rank of the sequence",serum of patient P17 (WDEIA),Key
2714 (GIGTVPVGRV; REGION 1..10: note = epitope) [compound 2714],"Epitope sequence binding to IgE antibody, rank of the sequence",serum of patient P17 (WDEIA),Key
2716 (YKIGGI; REGION 1..6: note = epitope) [compound 2716],"Epitope sequence binding to IgE antibody, rank of the sequence",serum of patient P18 (WDEIA),Preferably
2717 (YKIGG; REGION 1..5: note = epitope) [compound 2717],"Epitope sequence binding to IgE antibody, rank of the sequence",serum of patient P18 (WDEIA),Key
2718 (GIGTVPVGRV; REGION 1..10: note = epitope) [compound 2718],"Epitope sequence binding to IgE antibody, rank of the sequence",serum of patient P18 (WDEIA),Key
2719 (YKIGG; REGION 1..5: note = epitope) [compound 2719],"Epitope sequence binding to IgE antibody, rank of the sequence",serum of patient P25 (WDEIA),Key
2720 (IGGIGTVPVG; REGION 1..10: note = epitope) [compound 2720],"Epitope sequence binding to IgE antibody, rank of the sequence",serum of patient P25 (WDEIA),Preferably
2721 (GIGTVPVG; REGION 1..8: note = epitope) [compound 2721],"Epitope sequence binding to IgE antibody, rank of the sequence",serum of patient P25 (WDEIA),Key
2722 (YKIGG; REGION 1..5: note = epitope) [compound 2722],"Epitope sequence binding to IgE antibody, rank of the sequence",serum of patient P26 (WDEIA),Preferably
2723 (KIGG; REGION 1..4: note = epitope) [compound 2723],"Epitope sequence binding to IgE antibody, rank of the sequence",serum of patient P26 (WDEIA),Key
